From patent US20240016783A1 (Icahn School of Medicine at Mount Sinai, priority 2020, published 2024)

Tests used:
[1] = test system: Alzheimer's disease patients; conditions: in vivo
[2] = test system: rodents; conditions: through clustering of dendritic spines; cited from earlier work
[3] = test system: rodent models; conditions: cited from earlier work
[4] = test system: mouse model of AD (SXFAD); conditions: early-onset aggressive mouse model of AD (SXFAD); cited from earlier work

Abdominal discomfort ([1]; human, 6 months): 15.4% | Cough ([1]; human, 6 months): 19.23% | Diarrhea ([1]; human, 6 months): 15.4% | Dizziness ([1]; human, 6 months): 15.4% | Elevated liver enzymes ([1]; human, 6 months): 7.7% | Nausea ([1]; human, 6 months): 7.7% | Urinary frequency ([1]; human, 6 months): 11.5%
SMILES: Nc1nc2ccc(OC(F)(F)F)cc2s1 [Riluzole, 2-Amino-6-(trifluoromethoxy)benzothiazole]
Adverse event that led to removal from the trial ([1]; human, 6 months): 15.4% | Patients having at least one adverse event during the study ([1]; human, 6 months): 88.5% | Serious adverse events ([1]; human, 6 months): 7.7% | Difference in adverse events between treatment groups [1]: no statistical differences | Age-related cognitive decline [2]: can prevent age-related cognitive decline | Gene expression profiles related to aging and AD [3]: rescues gene expression profiles related to aging and AD | Gene expression changes in immune pathways [4]: reversed many of the gene expression changes in immune pathways | Hippocampal-dependent spatial memory decline [4]: prevented hippocampal-dependent spatial memory decline
